# According to article PMC12217109, “Development of novel benzamide class I selective lysine deacetylase inhibitors as potent anticancer agents” (Journal of Enzyme Inhibition and Medicinal Chemistry, 2025):
# “Also recorded” adds a separate entry of the source.
# Columns and labels:
# [1] = tested on: MCF7 breast cancer cell line; assay: MTT cellular viability assay, MCF7; assay type: cell-based; conditions: Homo sapiens, 96 h
# Protocol: (§1) The human A2780 ovarian (#93112519) and MCF-7 breast (#86012803) cancer cell lines were obtained from the European Cell Culture Collection (ECACC; Salisbury, UK). The human cardiac ventricular AC16 cell line (#SCC109) was obtained from Merck/Millipore (UK). The A2780 and MCF-7 cell lines were maintained in RPMI-1640 medium and the AC16 cell line was maintained in DMEM/F12 medium. Culture medium of all three cell lines was supplemented with 10% heat-inactivated foetal bovine serum (FBS) and 2 mM L-glutamine, with the cells maintained in a humidified 5% CO2 atmosphere at 37 °C. The media was changed every 72h and the cells passaged via trypsinisation (Trypsin EDTA, 0.25%) before reaching confluency.
# (§2) Cytotoxicity of each compound against the cell lines was assessed using the MTT assay. Cells were seeded in three replicates into 96-well plates at a density of 2 × 10^3/well for 24h to facilitate cell attachment. Media was replaced with that containing either test compound (0–10µM) for A2780 and MCF7 cell lines, single concentration (10 µM) test compound for AC16 cell line, or drug vehicle (dimethyl sulphoxide; DMSO) and the cells incubated for a further 96 h at 37 °C in a humidified 5% CO2 atmosphere. […] Chemosensitivity was thereafter assessed using a standard 3-[4, 5-dimethylthiazolyl]-2,5-diphenyltetrazolium bromide (MTT) assay, with the optical density determined at 540 nm as an indicator of cellular viability.
# acetylated tubulin = assay: Flow cytometric analysis of tubulin acetylation in A2780 cells; assay type: cell-based, human; conditions: A2780, 24 h, 10 µM
# Protocol: (§3) The method was adapted from Ronzoni et al.[67] as previously described. A2780 cells were exposed to test compounds (0–10 µM) for 24 h, fixed with ice-cold ethanol (70% v/v) and permeabilised in the presence of 0.1% Triton-X. Non-specific protein binding was blocked using normal goat serum prior to incubation with or without primary antibodies raised against either anti-hyperacetylated Histone H4 (Penta) antibody (Upstate Biotechnology, USA) or acetylated tubulin (Sigma-Aldrich, UK), followed by incubation with FITC-conjugated secondary antibody (Dako). Cells were incubated in propidium iodide (PI) staining buffer (PBS with 50 µg/ml PI and 10 µg/ml RNase A) and subsequently analysed by flow cytometry (BD FACSCalibur; Becton Dickinson, UK). At least 15 000 events per sample were acquired and expression determined based on the detection of FITC fluorescence through the FL1 channel (530/30 nm bandpass optical filter), with cell doublets discriminated by forward/side scatter and background fluorescence omitted via comparison to unlabelled controls. Expression analysis was performed using CellQuest™ software (Becton Dickinson, UK).
# UO-31 = assay: NCI-60 cytotoxicity screen; assay type: cell-based; conditions: Homo sapiens, NCI-60, 48 h, renal
# From the text: (§4) Compounds 3–7 were submitted to the US National Cancer Institute (NIH, Bethesda, Maryland) for screening against the NCI-60 panel of human cancer cell lines, as per standard protocol.
# HOP-92 = assay: NCI-60 cytotoxicity screen; assay type: cell-based; conditions: Homo sapiens, NCI-60, 48 h, NSCLC
# From the text: as §4
# SN12C = assay: NCI-60 cytotoxicity screen; assay type: cell-based; conditions: Homo sapiens, NCI-60, 48 h, renal
# From the text: as §4
# H522 = assay: NCI-60 cytotoxicity screen; assay type: cell-based; conditions: Homo sapiens, NCI-60, 48 h, NSCLC
# From the text: as §4
# SR = assay: NCI-60 cytotoxicity screen; assay type: cell-based; conditions: Homo sapiens, NCI-60, 48 h, leukaemia
# From the text: as §4
# A498 = assay: NCI-60 cytotoxicity screen; assay type: cell-based; conditions: Homo sapiens, NCI-60, 48 h, renal
# From the text: as §4
# LOX IMVI = assay: NCI-60 cytotoxicity screen; assay type: cell-based; conditions: Homo sapiens, NCI-60, 48 h, melanoma
# From the text: as §4
# MOLT-4 = assay: NCI-60 cytotoxicity screen; assay type: cell-based; conditions: Homo sapiens, NCI-60, 48 h, leukaemia
# From the text: as §4
# SK-OV-3 = assay: NCI-60 cytotoxicity screen; assay type: cell-based; conditions: Homo sapiens, NCI-60, 48 h, ovarian
# From the text: as §4
# IGROV-1 = assay: NCI-60 cytotoxicity screen; assay type: cell-based; conditions: Homo sapiens, NCI-60, 48 h, ovarian
# From the text: as §4
# MALME-3M = assay: NCI-60 cytotoxicity screen; assay type: cell-based; conditions: Homo sapiens, read-out: MALME-3M cytotoxicity IC50, NCI-60, 48 h, melanoma
# From the text: as §4
# HCT15 = assay: NCI-60 cytotoxicity screen; assay type: cell-based; conditions: Homo sapiens, HCT-15; NCI-60, 48 h, colon
# From the text: as §4
# HOP-62 = assay: NCI-60 cytotoxicity screen; assay type: cell-based; conditions: Homo sapiens, NCI-60, 48 h, NSCLC
# From the text: as §4
# HT29 = assay: NCI-60 cytotoxicity screen; assay type: cell-based; conditions: Homo sapiens, HT-29; NCI-60, 48 h, colon
# From the text: as §4
# H226 = assay: NCI-60 cytotoxicity screen; assay type: cell-based; conditions: Homo sapiens, NCI-60, 48 h, NSCLC
# From the text: as §4
# ACHN = assay: NCI-60 cytotoxicity screen; assay type: cell-based; conditions: Homo sapiens, NCI-60, 48 h, renal
# From the text: as §4
# acetylated histone H4 = assay: Flow cytometric analysis of histone H4 acetylation in A2780 cells; assay type: cell-based, human; conditions: A2780, 24 h, 5 µM or 10 µM
# Protocol: as §3
# MDA-MB-231 = assay: NCI-60 cytotoxicity screen; assay type: cell-based; conditions: Homo sapiens, MDA-MB-231, read-out: MDA-MB-231 cytotoxicity IC50; NCI-60, 48 h, breast
# [2] = tested on: AC16 ventricular cardiac cell line; assay: MTT cellular viability assay, AC16; assay type: cell-based; conditions: Homo sapiens, 96 h, single concentration 10 µM
# Protocol: as §1, §2
# K562 = assay: NCI-60 cytotoxicity screen; assay type: cell-based; conditions: Homo sapiens, NCI-60, 48 h, leukaemia
structure (smiles),measurement,setting,value
"Nc1ccccc1NC(=O)c1ccc(CNC(=O)OCc2cccnc2)cc1 [Compound 1, Entinostat, reference compound]",IC50,[1],0.4 ± 0.1 µM
same,tubulin acetylation (flow cytometry),acetylated tubulin,No change in Tubulin acetylation status; also recorded: neither 1 nor 7 induced a measurable change in tubulin acetylation
same,IC50,UO-31,1.17 µM
same,IC50,HOP-92,0.04 µM
same,IC50,SN12C,9.4 µM
same,IC50,H522,0.7 µM
same,IC50,SR,0.53 µM
same,IC50,A498,0.36 µM
same,IC50,LOX IMVI,1.06 µM
same,IC50,MOLT-4,1.93 µM
same,IC50,SK-OV-3,2.75 µM
same,IC50,IGROV-1,3.95 µM
same,IC50,MALME-3M,0.58 µM
same,IC50,HCT15,8.47 µM
same,IC50,HOP-62,2.06 µM
same,IC50,HT29,1.03 µM
same,IC50,H226,0.6 µM
same,IC50,ACHN,2.33 µM
same,acetylated histone H4 (flow cytometry),acetylated histone H4,Increased acetylated histone H4
"C=C(CN1CCN(c2ccccc2C(F)(F)F)CC1)c1ccc(C(=O)Nc2ccccc2N)cc1 [Compound 3, N-(2-aminophenyl)-4–(3-(4–(2-(trifluoromethyl)phenyl)piperazin-1-yl)prop-1-en-2-yl)benzamide]",IC50,[1],7.3 ± 0.4 µM
same,IC50,MDA-MB-231,4.68 µM
same,IC50,[2],> 10 µM
same,IC50,UO-31,1 µM
same,IC50,HOP-92,1.85 µM
same,IC50,SN12C,6.43 µM
same,IC50,H522,1.91 µM
same,IC50,SR,2.36 µM
same,IC50,A498,3.55 µM
same,IC50,LOX IMVI,5.86 µM
same,IC50,MOLT-4,0.13 µM
same,IC50,SK-OV-3,11 µM
same,IC50,IGROV-1,6.03 µM
same,IC50,MALME-3M,4.18 µM
same,IC50,HCT15,4.89 µM
same,IC50,HOP-62,4.76 µM
same,IC50,HT29,4.09 µM
same,IC50,H226,7.78 µM
same,IC50,ACHN,7.19 µM
same,IC50,K562,1.54 µM
"C=C(CN1CCN(c2cccc(C(F)(F)F)c2)CC1)c1ccc(C(=O)Nc2ccccc2N)cc1 [Compound 4, N-(2-aminophenyl)-4–(3-(4–(3-(trifluoromethyl)phenyl)piperazin-1-yl)prop-1-en-2-yl)benzamide]",IC50,[1],1.4 ± 0.1 µM
same,IC50,MDA-MB-231,0.94 µM
same,IC50,[2],> 10 µM
same,IC50,UO-31,2.39 µM
same,IC50,HOP-92,1.51 µM
same,IC50,SN12C,0.29 µM
same,IC50,H522,6.14 µM
same,IC50,SR,0.02 µM
same,IC50,A498,0.01 µM
same,IC50,LOX IMVI,0.12 µM
same,IC50,MOLT-4,0.13 µM
same,IC50,IGROV-1,14.2 µM
same,IC50,HCT15,0.48 µM
same,IC50,HOP-62,0.7 µM
same,IC50,HT29,1.46 µM
same,IC50,H226,1.89 µM
same,IC50,ACHN,0.92 µM
same,IC50,K562,0.18 µM
"C=C(CN1CCN(c2ccc(C(F)(F)F)cc2)CC1)c1ccc(C(=O)Nc2ccccc2N)cc1 [Compound 5, N-(2-aminophenyl)-4–(3-(4–(4-(trifluoromethyl)phenyl)piperazin-1-yl)prop-1-en-2-yl)benzamide]",IC50,[1],0.4 ± 0.4 µM
same,IC50,MDA-MB-231,3.6 µM
same,IC50,[2],> 10 µM
same,IC50,UO-31,0.97 µM
same,IC50,HOP-92,3.94 µM
same,IC50,SN12C,6.37 µM
same,IC50,H522,1.85 µM
same,IC50,SR,1.1 µM
same,IC50,A498,7.67 µM
same,IC50,LOX IMVI,11.1 µM
same,IC50,MOLT-4,0.6 µM
same,IC50,SK-OV-3,12.1 µM
same,IC50,IGROV-1,18.2 µM
same,IC50,MALME-3M,19.3 µM
same,IC50,HCT15,> 100 µM
same,IC50,HOP-62,8.38 µM
same,IC50,HT29,75.7 µM
same,IC50,H226,7.52 µM
same,IC50,ACHN,9.64 µM
same,IC50,K562,0.3 µM
"C=C(CN1CCN(c2ccccn2)CC1)c1ccc(C(=O)Nc2ccccc2N)cc1 [Compound 6, N-(2-aminophenyl)-4–(3-(4-(pyridin-2-yl)piperazin-1-yl)prop-1-en-2-yl)benzamide]",IC50,[1],3.2 ± 0.8 µM
same,IC50,MDA-MB-231,2.17 µM
same,IC50,[2],> 10 µM
same,IC50,UO-31,1.8 µM
same,IC50,HOP-92,5.7 µM
same,IC50,SN12C,2.36 µM
same,IC50,H522,1.56 µM
same,IC50,SR,5.33 µM
same,IC50,LOX IMVI,0.93 µM
same,IC50,SK-OV-3,1.3 µM
same,IC50,IGROV-1,1.57 µM
same,IC50,HCT15,1.91 µM
same,IC50,HOP-62,1.32 µM
same,IC50,ACHN,1.5 µM
same,IC50,K562,0.96 µM
"C=C(CN1CCN(c2cccc(C(F)(F)F)n2)CC1)c1ccc(C(=O)Nc2ccccc2N)cc1 [Compound 7, N-(2-aminophenyl)-4–(3-(4–(6-(trifluoromethyl)pyridin-2-yl)piperazin-1-yl)prop-1-en-2-yl)benzamide]",IC50,[1],0.8 ± 0.3 µM
same,IC50,MDA-MB-231,4.62 µM
same,tubulin acetylation (flow cytometry),acetylated tubulin,No change in Tubulin acetylation status; also recorded: neither 1 nor 7 induced a measurable change in tubulin acetylation
same,IC50,[2],> 10 µM
same,IC50,UO-31,2.75 µM
same,IC50,SN12C,3.79 µM
same,IC50,H522,1.11 µM
same,IC50,SR,0.28 µM
same,IC50,A498,0.97 µM
same,IC50,LOX IMVI,1.49 µM
same,IC50,MOLT-4,0.86 µM
same,IC50,SK-OV-3,2.55 µM
same,IC50,IGROV-1,2.01 µM
same,IC50,MALME-3M,1.06 µM
same,IC50,HCT15,0.92 µM
same,IC50,HOP-62,2.21 µM
same,IC50,HT29,0.56 µM
same,IC50,H226,13.4 µM
same,IC50,ACHN,8.39 µM
same,acetylated histone H4 (flow cytometry),acetylated histone H4,Increased acetylated histone H4; also recorded: Increased induction in histone H4 acetylation
